Laboratory results: patent US9180163B2, “Parstatin peptides” (priority 2009, dated 2015)

Tests used:
[1] = tested on: retinal neovascularization in C57BL/6 mice; assay type: in vivo; details: 5 μg intravitreal P12 and P15; P17; vs vehicle (PBS or DMSO)
Text: Parstatin (1-41), hydrophobic parstatin (1-26) fragment and hydrophilic parstatin (24-41) fragment were used in an in vivo mouse model of retinal neovascularization. In particular, oxygen-induced retinopathy was used to generate retinal neovascularization as a preclinical disease model for retinopathy of prematurity and other retinal neovascular diseases such as diabetic retinopathy. In this model, exposing newborn mice to hyperoxia prompts regression or delay of retinal vascular development, followed by abnormal angiogenesis after their return to normal oxygen levels. Mainly, this model mirrors the events that occur during retinopathy of prematurity, when infants are removed from oxygen-rich incubators, a condition involving pathological neovascularization that can affect premature infants and result in permanent visual loss. In recent years, the use of this model has been extended to the general study of ischemic vasculopathies, such us diabetic retinopathy, and related antiangiogenic interventions, and it is now used extensively in both basic and applied research environments.
Pathogen-free C57BL/6 mice were treated in accordance with the Association for Research in Vision and Ophthalmology Statement for the Use of Animals in Ophthalmic and Vision Research and the guidelines of the Animal Care and Use Committee at local University Medical School. Litters of 7-day old (P7) mice were exposed to an atmosphere of 75% oxygen in an airtight incubator for 5 days (P12), after which they were returned to room air for 5 days (P17). For quantification of oxygen-induced retinal neovascularization, mice on P17 were given an intraocular injection of 1 μl of rat anti-mouse platelet endothelial cell adhesion molecule-1 (PECAM-1) antibody (Pharmingen, San Jose, Calif.) under a dissecting microscope with Harvard pump microinjection apparatus. Mice were euthanized 12 hours after injection and eyes were fixed in PBS-buffered formalin for 5 hours. […] Retinal flat mounts were prepared and assessed with fluorescence microscope using imaging software. […]

[2] = tested on: corneal neovascularization in Sprague-Dawley rats; test: chemical burn-induced corneal neovascularization, image analysis; assay type: in vivo, rat; details: 2×50 μg subconjunctival, day 7
Text: Parstatin (1-41), hydrophobic parstatin (1-26) fragment and hydrophilic parstatin (24-41) fragment were used in an in vivo rat model of corneal neovascularization. In particular, chemical burn-induced corneal trauma was used to generate corneal neovascularization as a preclinical disease model simulating a plethora of corneal diseases associated with abnormal formation of new blood vessels. The cornea is normally an avascular tissue that can be stimulated to undergo pathological neoangiogenesis in response to mechanical or chemical injuries, pterygium, herpetic keratitis, etc. In this model, an inflammatory response is considered an important prerequisite for neovascularization. This model is widely accepted and is one of the most extensively studied models, which provides an in vivo environment to study this complex process with convenient access to the corneal tissue and the highly visible developing vasculature.
Pathogen-free male Sprague-Dawley rats (250-300 gr) were treated in accordance with the Association for Research in Vision and Ophthalmology Statement for the Use of Animals in Ophthalmic and Vision Research and the guidelines of the Animal Care and Use Committee at local University Medical School. […] The corneal neovascularization was assessed using a semiautomatic program, which was developed in MATLAB 7.5. […]

[3] = tested on: corneas of Sprague-Dawley rats; test: corneal histopathology after chemical burn (vessels, neutrophils); assay type: in vivo, rat; details: 2×50 μg, day 7
Method: After the above-described processes were performed, the rats were sacrificed (7 days) and the eyes were excised. All eyes were sectioned (4 μm) and stained with hematoxylin-eosin. Two independent pathologists, in a blinded manner, evaluated the microvessel density and the inflammatory cell infiltration in each slide. Total corneal vascular vessels and neutrophils were counted at 200× in seven representative stained tissue sections for each eye, covering all cornea area and having a similar distance from the central burn.

Sequence | inhibition of retinal neovascularization [1] | inhibition of corneal neovascularization [2] | inhibition of corneal mean number of vascular vessels [3] | inhibition of mean number of infiltrated neutrophils [3]
MGPRRLLLVAACFSLCGPLLSARTRA (listed as Homo sapiens) [parstatin (1-26)] | 65% | 50% | 55% | 71%
TRARRPESKATNATLDPR (listed as Homo sapiens) [parstatin (24-41), 24-41 (18 amino acids) of human parstatin, hydrophilic fragment] | 69% | 60% | 68% | 75%
